What all share (type): cell-based
The target of experiment [1] is T1, organic cation transporter 1 (OCT1) (Homo sapiens, UniProt O15245).
T1 sequence (O15245 1-554): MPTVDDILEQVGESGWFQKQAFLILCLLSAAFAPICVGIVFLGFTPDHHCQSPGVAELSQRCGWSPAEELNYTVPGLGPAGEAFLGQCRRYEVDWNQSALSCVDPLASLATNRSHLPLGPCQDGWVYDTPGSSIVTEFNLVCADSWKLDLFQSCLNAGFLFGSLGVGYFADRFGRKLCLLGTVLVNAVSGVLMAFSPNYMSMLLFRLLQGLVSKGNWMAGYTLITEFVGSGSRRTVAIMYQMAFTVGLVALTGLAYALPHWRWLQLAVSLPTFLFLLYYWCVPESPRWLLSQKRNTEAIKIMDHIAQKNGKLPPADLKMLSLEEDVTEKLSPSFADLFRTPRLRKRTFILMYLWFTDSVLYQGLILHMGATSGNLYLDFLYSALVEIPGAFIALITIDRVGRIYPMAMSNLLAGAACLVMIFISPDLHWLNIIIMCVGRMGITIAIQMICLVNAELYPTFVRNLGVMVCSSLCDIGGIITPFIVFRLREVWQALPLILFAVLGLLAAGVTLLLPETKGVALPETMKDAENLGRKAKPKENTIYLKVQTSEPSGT
As to the kind of experiment: inhibition of TEA uptake into OCT1-expressing cells at […]. The note with it: read-out: % inhibition at 50 μmol/L.

For experiment [2], the target named is T1, organic cation transporter 1 (OCT1). The experiment is described as follows: inhibition of […]TEA uptake into HEK-OCT1 cells at […].
The target is the same in experiment [3].

As for `Cc1ccc(NC(=O)c2ccc(CN3CCNCC3)cc2)cc1Nc1nccc(-c2cccnc2)n1` [N-desmethyl imatinib], the inhibition at 50 µM in experiment [1] is 90.7 ± 1%.
Consider `CCN1/C(=C/c2ccc3ccccc3[n+]2CC)C=Cc2ccccc21` [decynium22], for which the “inhibition of [14C]TEA uptake into HEK-OCT1 cells at 5 μmol/L” value in experiment [2] was “OCT1-dependent TEA uptake was significantly reduced in the presence of the inhibitors prazosin and decynium22 (Fig. 4A)”.
Consider `COc1cc2nc(N3CCN(C(=O)c4ccco4)CC3)nc(N)c2cc1OC` [prazosin], for which, in experiment [3], the “inhibition of [14C]TEA uptake into HEK-OCT1 cells” value is “OCT1-dependent TEA uptake was significantly reduced in the presence of the inhibitors prazosin and decynium22 (Fig. 4A)”.

The record behind these values is paper PMC3932302 (Clinical cancer research : an official journal of the …, 2013).
